Consider five compounds from patent US20260001928A1 (CORTERIA PHARMACEUTICALS, priority 2022, published 2026).

The target of one experiment is T1, human CRF2a receptor (Homo sapiens, UniProt Q13324).
T1 construct: expressed in transfected cells; host or cells: TeloHEAC cells
T1 sequence (Q13324 1-411): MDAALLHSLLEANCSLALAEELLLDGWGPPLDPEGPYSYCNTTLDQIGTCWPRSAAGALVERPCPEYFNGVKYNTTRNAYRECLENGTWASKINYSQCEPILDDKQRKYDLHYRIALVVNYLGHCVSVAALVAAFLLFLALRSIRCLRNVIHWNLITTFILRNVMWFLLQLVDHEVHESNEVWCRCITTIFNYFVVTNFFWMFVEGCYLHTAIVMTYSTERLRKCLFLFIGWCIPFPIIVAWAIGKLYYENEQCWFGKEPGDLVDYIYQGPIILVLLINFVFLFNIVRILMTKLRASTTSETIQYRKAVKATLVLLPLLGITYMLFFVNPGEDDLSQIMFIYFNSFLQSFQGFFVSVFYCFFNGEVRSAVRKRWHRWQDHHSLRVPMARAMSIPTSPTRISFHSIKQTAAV
Briefly: Activity at human CRF2a receptor, cAMP functional assay in TeloHEAC cells. The experiment is classed as cell-based. As to conditions: TeloHEAC cells stably expressing human CRF2a receptor, relative to urocortin 2 (100 nM = 100%). The procedure, abridged:
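TeloHEAC cells stably expressing human CRF2a (10000 cells/well, suspended in HBSS/20 mM HEPES with 2 mM IBMX) were exposed to compounds for 30 min at 37 °C. cAMP was read as the 665/620 nm fluorescence ratio after 1 h at room temperature. EC50 was derived relative to 100 nM urocortin 2, set as 100%.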

The target in the next experiment is T2, CFR1R receptor (Homo sapiens, UniProt P34998).
T2 construct: host or cells: CHO-K1 (clone 2)
T2 sequence (P34998 24-415): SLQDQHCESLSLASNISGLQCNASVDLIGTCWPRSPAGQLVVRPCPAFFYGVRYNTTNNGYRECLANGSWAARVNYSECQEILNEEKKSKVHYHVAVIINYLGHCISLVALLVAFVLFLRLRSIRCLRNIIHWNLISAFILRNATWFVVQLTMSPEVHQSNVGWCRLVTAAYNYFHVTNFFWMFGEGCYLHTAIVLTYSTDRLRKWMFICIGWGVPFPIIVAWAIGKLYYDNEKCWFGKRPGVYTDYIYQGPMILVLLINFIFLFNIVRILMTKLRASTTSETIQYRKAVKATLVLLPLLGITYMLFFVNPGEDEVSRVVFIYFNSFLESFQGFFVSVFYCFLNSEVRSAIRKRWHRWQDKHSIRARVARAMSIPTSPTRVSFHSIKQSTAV
Kind of experiment: Activity at anti-target CFR1R receptor, cAMP assay in CRF1R-overexpression CHO-K1 cells. The experiment is classed as cell-based. As to conditions: 100% = Sauvagine at 100 nM; for EC50: cAMP. In outline: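 cAMP readout in CRF1R-overexpressing CHO-K1 cells (clone 2), run as for the TeloHAEC assay at 4000 cells/well final. Cells came from cryopreserved banks. Sauvagine at 100 nM defined 100% activation.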
A general note: cAMP levels reflect the balance of adenylyl cyclase and phosphodiesterase activity.

*1 amine or outer side, *2 acyl side, *3 side chain or, on linkers, in order; H or OH if unused. Where a SMILES comes first, the peptide text is derived from it. Side-chain parts run from the residue outwards. [ ]: non-standard residue; d: D form. The star is where a group is joined. C16 diacid = O=C(O)CCCCCCCCCCCCCCC(=O)*; γGlu = O=C(O)[C@H](CCC(=O)[*:2])N[*:1]; NMeI = CC[C@H](C)[C@H](NC)C(=O)O; Api = NC1(C(=O)O)CCNCC1; Abu = CC[C@H](N)C(=O)O; Dap = NC[C@H](N)C(=O)O

Usually EC50 stands for the concentration giving half of the maximal effect. A lower EC50 goes with greater potency. On to `CC[C@H](C)[C@H](NC)C(=O)N[C@H](C(=O)N[C@@H](CC(C)C)C(=O)N[C@@H](CO)C(=O)N[C@@H](CC(C)C)C(=O)N[C@@H](CC(=O)O)C(=O)N[C@@H](C(=O)N1CCC[C@H]1C(=O)N[C@H](C(=O)N[C@@H](CCCCN)C(=O)N[C@@H](CC(C)C)C(=O)N[C@@H](CCCCNC(=O)CC[C@H](NC(=O)CCCCCCCCCCCCCCC(=O)O)C(=O)O)C(=O)N[C@@H](CCCCN)C(=O)N[C@H](C(=O)N[C@@H](CC(C)C)C(=O)N[C@@H](CC(C)C)C(=O)N[C@@H](CCC(=O)O)C(=O)N[C@@H](CCC(N)=O)C(=O)N[C@@H](CCC(=O)O)C(=O)N[C@@H](CCCCN)C(=O)N[C@@H](CCC(N)=O)C(=O)N[C@@H](CCCCN)C(=O)N[C@@H](CCCCN)C(=O)N[C@@H](CCC(N)=O)C(=O)N[C@@H](CCCNC(=N)N)C(=O)N[C@@H](CCC(=O)O)C(=O)N[C@@H](CCC(N)=O)C(=O)N[C@@H](C)C(=O)N[C@@H](CCC(=O)O)C(=O)N[C@H](C(=O)N[C@@H](CC(N)=O)C(=O)N[C@@H](C)C(=O)N[C@@H](CCC(N)=O)C(=O)N[C@H](C(=O)N[C@@H](CC(C)C)C(=O)N[C@@H](C)C(=O)N[C@@H](CCC(N)=O)C(=O)N[C@H](C(N)=O)C(C)C)[C@@H](C)CC)[C@@H](C)O)[C@@H](C)CC)[C@@H](C)CC)C(C)C)C(C)C` [compound 68] (H-[NMeI]VLSLD[dV]PIKLK([γGlu-C16 diacid])KILLEQEKQKKQREQAETNAQILAQV-NH2), for which the response at human CRF2a receptor was half-maximal at 0.05 nM (EC50). At CFR1R receptor, the “Emax (% I)” value stood at 8 % I and the EC50 is above 250 nM.
On the same counts, the results for `CC[C@H](NC(=O)[C@H](CC(N)=O)NC(=O)[C@@H](NC(=O)[C@H](CCC(=O)O)NC(=O)[C@H](C)NC(=O)[C@H](CCC(N)=O)NC(=O)[C@H](CCC(=O)O)NC(=O)[C@H](CCCNC(=N)N)NC(=O)[C@H](CCC(N)=O)NC(=O)[C@H](CCCCN)NC(=O)[C@H](CCCCN)NC(=O)[C@H](CCC(N)=O)NC(=O)[C@H](CCCCN)NC(=O)[C@H](CCC(=O)O)NC(=O)[C@H](CCC(N)=O)NC(=O)[C@H](CCC(=O)O)NC(=O)[C@H](CC(C)C)NC(=O)[C@H](CC(C)C)NC(=O)[C@@H](NC(=O)[C@H](CCCCN)NC(=O)[C@H](CCCCNC(=O)CC[C@H](NC(=O)CCCCCCCCCCCCCCC(=O)O)C(=O)O)NC(=O)[C@H](CC(C)C)NC(=O)[C@H](CCCCN)NC(=O)[C@@H](NC(=O)[C@@H]1CCCN1C(=O)[C@H](NC(=O)[C@H](CC(=O)O)NC(=O)[C@H](CC(C)C)NC(=O)[C@H](CO)NC(=O)[C@H](CC(C)C)NC(=O)[C@@H](NC(=O)[C@@H](NC)[C@@H](C)CC)C(C)C)C(C)C)[C@@H](C)CC)[C@@H](C)CC)[C@@H](C)O)C(=O)N[C@@H](CCC(N)=O)C(=O)N[C@H](C(=O)N[C@@H](CC(C)C)C(=O)N[C@@H](C)C(=O)N[C@@H](CCC(N)=O)C(=O)N[C@H](C(N)=O)C(C)C)[C@@H](C)CC` [compound 69] (H-[NMeI]VLSLD[dV]PIKLK([γGlu-C16 diacid])KILLEQEKQKKQREQAETN[Abu]QILAQV-NH2) are 0.09 nM, 3 % I and above 250 nM.
For `CC[C@H](C)[C@H](NC)C(=O)N[C@H](C(=O)N[C@@H](CC(C)C)C(=O)N[C@@H](CO)C(=O)N[C@@H](CC(C)C)C(=O)N[C@@H](CC(=O)O)C(=O)N[C@@H](C(=O)N1CCC[C@H]1C(=O)N[C@H](C(=O)N[C@@H](CCCCN)C(=O)N[C@@H](CC(C)C)C(=O)N[C@@H](CCCCNC(=O)CC[C@H](NC(=O)CCCCCCCCCCCCCCC(=O)O)C(=O)O)C(=O)N[C@@H](CCCCN)C(=O)N[C@H](C(=O)N[C@@H](CC(C)C)C(=O)N[C@@H](CC(C)C)C(=O)N[C@@H](CCC(=O)O)C(=O)N[C@@H](CCC(N)=O)C(=O)N[C@@H](CCC(=O)O)C(=O)N[C@@H](CCCCN)C(=O)N[C@@H](CCC(N)=O)C(=O)N[C@@H](CCCCN)C(=O)N[C@@H](CCCCN)C(=O)N[C@@H](CCC(N)=O)C(=O)N[C@@H](CCCNC(=N)N)C(=O)N[C@@H](CCC(=O)O)C(=O)N[C@@H](CCC(N)=O)C(=O)N[C@@H](C)C(=O)N[C@@H](CCC(=O)O)C(=O)N[C@H](C(=O)N[C@@H](CC(N)=O)C(=O)N[C@@H](CN)C(=O)N[C@@H](CCC(N)=O)C(=O)N[C@H](C(=O)N[C@@H](CC(C)C)C(=O)N[C@@H](C)C(=O)N[C@@H](CCC(N)=O)C(=O)N[C@H](C(N)=O)C(C)C)[C@@H](C)CC)[C@@H](C)O)[C@@H](C)CC)[C@@H](C)CC)C(C)C)C(C)C` [compound 70] (H-[NMeI]VLSLD[dV]PIKLK([γGlu-C16 diacid])KILLEQEKQKKQREQAETN[Dap]QILAQV-NH2), on human CRF2a receptor, the response was half-maximal at 0.17 nM (EC50). At CFR1R receptor, the “Emax (% I)” value is 0 % I and the EC50 was above 250 nM.
Consider `CC[C@H](C)[C@H](NC)C(=O)N[C@H](C(=O)N[C@@H](CC(C)C)C(=O)N[C@@H](CO)C(=O)N[C@@H](CC(C)C)C(=O)N[C@@H](CC(=O)O)C(=O)N[C@@H](C(=O)N1CCC[C@H]1C(=O)N[C@H](C(=O)N[C@@H](CCCCN)C(=O)N[C@@H](CC(C)C)C(=O)N[C@@H](CCCCNC(=O)CC[C@H](NC(=O)CCCCCCCCCCCCCCC(=O)O)C(=O)O)C(=O)N[C@@H](CCCCN)C(=O)N[C@H](C(=O)N[C@@H](CC(C)C)C(=O)N[C@@H](CC(C)C)C(=O)N[C@@H](CCC(=O)O)C(=O)N[C@@H](CCC(N)=O)C(=O)N[C@@H](CCC(=O)O)C(=O)N[C@@H](CCCCN)C(=O)N[C@@H](CCC(N)=O)C(=O)N[C@@H](CCCCN)C(=O)N[C@@H](CCCCN)C(=O)N[C@@H](CCC(N)=O)C(=O)N[C@@H](CCCNC(=N)N)C(=O)N[C@@H](CCC(=O)O)C(=O)N[C@@H](CCC(N)=O)C(=O)N[C@@H](C)C(=O)N[C@@H](CCC(=O)O)C(=O)N[C@H](C(=O)N[C@@H](CC(N)=O)C(=O)N[C@@H](CCC(=O)O)C(=O)N[C@@H](CCC(N)=O)C(=O)N[C@H](C(=O)N[C@@H](CC(C)C)C(=O)N[C@@H](C)C(=O)N[C@@H](CCC(N)=O)C(=O)N[C@H](C(N)=O)C(C)C)[C@@H](C)CC)[C@@H](C)O)[C@@H](C)CC)[C@@H](C)CC)C(C)C)C(C)C` [compound 71] (H-[NMeI]VLSLD[dV]PIKLK([γGlu-C16 diacid])KILLEQEKQKKQREQAETNEQILAQV-NH2), for which a half-maximal effect at human CRF2a receptor (EC50) was put at 0.21 nM. On CFR1R receptor, the “Emax (% I)” value is −4 % I and the EC50 was above 250 nM.
On human CRF2a receptor, `CC[C@H](C)[C@H](NC)C(=O)N[C@H](C(=O)N[C@@H](CC(C)C)C(=O)N[C@@H](CO)C(=O)N[C@@H](CC(C)C)C(=O)N[C@@H](CC(=O)O)C(=O)N[C@@H](C(=O)N1CCC[C@H]1C(=O)N[C@H](C(=O)N[C@@H](CCCCN)C(=O)N[C@@H](CC(C)C)C(=O)N[C@@H](CCCCNC(=O)CC[C@H](NC(=O)CCCCCCCCCCCCCCC(=O)O)C(=O)O)C(=O)N[C@@H](CCCCN)C(=O)N[C@H](C(=O)N[C@@H](CC(C)C)C(=O)N[C@@H](CC(C)C)C(=O)N[C@@H](CCC(=O)O)C(=O)N[C@@H](CCC(N)=O)C(=O)N[C@@H](CCC(=O)O)C(=O)N[C@@H](CCCCN)C(=O)N[C@@H](CCC(N)=O)C(=O)N[C@@H](CCCCN)C(=O)N[C@@H](CCCCN)C(=O)N[C@@H](CCC(N)=O)C(=O)N[C@@H](CCCNC(=N)N)C(=O)N[C@@H](CCC(=O)O)C(=O)N[C@@H](CCC(N)=O)C(=O)N[C@@H](C)C(=O)N[C@@H](CCC(=O)O)C(=O)N[C@H](C(=O)N[C@@H](CC(N)=O)C(=O)NC1(C(=O)N[C@@H](CCC(N)=O)C(=O)N[C@H](C(=O)N[C@@H](CC(C)C)C(=O)N[C@@H](C)C(=O)N[C@@H](CCC(N)=O)C(=O)N[C@H](C(N)=O)C(C)C)[C@@H](C)CC)CCNCC1)[C@@H](C)O)[C@@H](C)CC)[C@@H](C)CC)C(C)C)C(C)C` [compound 72] (H-[NMeI]VLSLD[dV]PIKLK([γGlu-C16 diacid])KILLEQEKQKKQREQAETN[Api]QILAQV-NH2) returned an EC50 of 0.14 nM. On CFR1R receptor, the “Emax (% I)” value stood at 18 % I and the half-maximal effective concentration (EC50) is above 250 nM.
